Reference: patent publication US8148086B2, “Methods to predict and prevent resistance to taxoid compounds” (Children's Medical Center Corporatioin, priority 2005, dated 2012)

Experiments:
A549 and A549-TR cells = experiment: MTT cytotoxicity assay, paclitaxel on cell proliferation/survival; assay type: cell-based, human; conditions: MTT 72 h after paclitaxel addition
Method: (§1) FIGS. 1A and 1B show graphs illustrating the effect of paclitaxel on cell proliferation. A549 and A549 TR cell lines (FIG. 1A) and MES-SA and MES-SA-DX5 cell lines (FIG. 1B) were treated with various concentrations of paclitaxel. 24 hours after 1×10^4 cells/well were seeded in 96 well plates. MTT assay for cell survival was performed 72 h after paclitaxel addition. X axis: concentration of paclitaxel, Y axis-% survival.
(§2) Cell Culture. The human non-small cell lung carcinoma cell line A549 and its Paclitaxel-resistant derivative cell lines were cultured in F-12 Ham nutrient mixture (Invitrogren, Carlsbad, Calif.) supplemented with 10% fetal bovine serum (FBS) at 37° C. in a humidified atmosphere with 5% CO2/95% air. The paclitaxel-resistant cell lines were grown under selective pressure (100 nM paclitaxel), then placed in Paclitaxel-free culture medium 5-7 days before experiments were performed. The uterine sarcoma cells (MES-SA) and the multidrug resistant derivative (MES-SA/DX5) were maintained in McCoy's 5A media (ATCC, Rockville, Md.) supplemented with 10% FBS. […]
(§3) Cytotoxicity Assays. Cell growth inhibition was determined by 3-(4,5-dimethylthiazol-2-yl)-2,5-diphenyltetrazolium (MTT) bromide assay using MTT (Sigma Chemicals, St. Louis, Mo.) reagent in 96-well plates. […] Absorbance was determined using a 96-well SpectraMax plate reader (Molecular Devices, Sunnyvale, Calif.) at 570 nm.

[1] = tested on: MES-SA and MES-SA/DX5 cells; experiment: as above; assay type: cell-based, human; conditions: MTT 72 h after paclitaxel addition
Method: as §1, §2, §3

CC(=O)O[C@H]1C(=O)[C@@]2(C)[C@H]([C@H](OC(=O)c3ccccc3)[C@]3(O)C[C@H](OC(=O)[C@H](O)[C@@H](NC(=O)c4ccccc4)c4ccccc4)C(C)=C1C3(C)C)[C@]1(OC(C)=O)CO[C@@H]1C[C@@H]2O [paclitaxel, Paclitaxel]
difference in sensitivity to paclitaxel, resistant subline vs parental line (A549 and A549-TR cells): greater than 100 fold | difference in sensitivity to paclitaxel, resistant subline vs parental line [1]: greater than 100 fold
